One assay deals with H3255 cells (EGFR L858R). The assay can be described thus: Cell viability assay (WST-8), H3255. The settings on record: Homo sapiens, NCI-H3255, WST-8, 48 h. In kind it is cell-based. A general note: Tetrazolium dyes change colour on reduction, which living cells bring about.
Assay [1] relates to H1975 cells (EGFR L858R/T790M). On the set-up: method as in PMID 27827863. The settings on record: previous study ref 25; cited from earlier work.
Assay [2] has as its system H441 cells (wild-type EGFR). The assay can be described thus: Cell viability assay (WST-8), H441. The settings on record: WST-8, 48 h.
The target in another assay is wild-type EGFR-TK (Homo sapiens, UniProt P00533). The assay can be described thus: EGFR-TK inhibition assay (ADP-Glo), wild-type. The settings on record: EGFR tyrosine kinase wild-type; read-out: IC50 Value, Wild-Type (WT). In kind it is biochemical.
Assay [3] has as its target EGFR-TK with L858R/T790M mutation (Homo sapiens, UniProt P00533, L858R/T790M). Description: EGFR-TK inhibition assay (ADP-Glo), L858R/T790M. In kind it is biochemical.

With `C=CC(=O)Nc1cccc(Nc2nc(Nc3ccc(N4CCN(C(C)=O)CC4)cc3OC)ncc2C(F)(F)F)c1` [CO-1686, Rociletinib, reference compound], the IC50 – broadly, the concentration at which inhibition is half-maximal – with H3255 cells (EGFR L858R) is 150 ± 20 nM; in assay [1] it was 137 nM; in assay [2], 260 ± 40 nM.
On to `C=CC(=O)Nc1cc(I)cc(Nc2nc(Nc3ccc(N4CCN(C(C)=O)CC4)cc3OC)ncc2C(F)(F)F)c1` [compound 10, N-(3-{[2-({4-[4-acetylpiperazin-1-yl]-2-methoxyphenyl}amino)-5-(trifluoromethyl)pyrimidin-4-yl]amino}-5-iodophenyl)acrylamide], for which the IC50 with H3255 cells (EGFR L858R) was 500 ± 210 nM; on wild-type EGFR-TK, > 10000 nM; in assay [3] (EGFR tyrosine kinase L858R/T790M) it was 310 ± 150 nM; in assay [2], 1840 ± 440 nM. For the same compound, the “SI (WT: L858R/T790M)” value in assay [3] (selectivity index, wild-type IC50 to L858R/T790M IC50) is >32.
